In patent publication US9296745B2, “Diacylglycerol acyltransferase 2 inhibitors” (Pfizer Inc., priority 2012, dated 2016):
Read-outs that look alike come from different tables or passages of the source.

Target: Human DGAT2 (hDGAT2) (Homo sapiens (Human), UniProt Q96PD7)
Assay: In vitro DGAT2 assay, IC50 determination with hDGAT2 membrane fraction
Assay type: biochemical
Conditions: geometric mean
Procedure: Recombinant baculovirus for the FLAG-tagged hDGAT2 was generated in SF9 insect cells using Bac-to-Bac baculovirus expression system (Invitrogen) according to the manufacturer's protocol. For the expression of hDGAT2, SF9 cells (20 L) grown in Sf900II media were infected with hDGAT2 baculovirus at a multiplicity of infection of 1 in a Wave Bioreactor System 20/50P wave bag (GE Healthcare). After 40 hours of infection, the cells were then harvested by centrifugation at 5,000×g. The cell pellets were washed by resuspending in phosphate buffered saline (PBS) and collected by centrifugation at 5,000×g. The cell paste was flash frozen in liquid N2 and stored at −80° C. until needed. All operations below were at 4° C. unless otherwise noted. The cells were resuspended in lysis buffer (50 mM Tris-HCl, pH 8.0, 250 mM sucrose) including 1 mM ethylenediaminetetraacetic acid (EDTA) and the complete protease inhibitor cocktail (Roche Diagnostics) at a ratio of 3 ml buffer per 1 g cell paste. The cells were lysed by dounce homogenizer. The cell debris was removed by centrifugation at 1,000×g for 20 min, and the supernatant was centrifuged at 100,000×g for 1 hour. The resulting pellet was rinsed three times by filling ultracentrifuge tubes to the top with ice cold PBS before decanting. The washed pellet was resuspended with gentle stirring for 1 hour in lysis buffer containing 8 mM 3-[(3-cholamidopropyl)dimethylammonio]-1-propanesulfonate (CHAPS) at a ratio of 1 mL buffer per 1 g of original cell paste and centrifuged again at 100,000×g for 1 hour. The resulting supernatant (hDGAT2 membrane fraction) was aliquotted, flash frozen in liquid N2, and stored at −80° C. until use.
To 1 μL of compounds dissolved in 100% DMSO and spotted at the bottom of each well, 5 μL of 0.04% bovine serum albumin (BSA) (fatty acid free, Sigma Aldrich) was added and the mixture was incubated at room temperature for 20 minutes. To this mixture, 10 μL of hDGAT2 membrane fraction (0.01 mg/mL) diluted in 100 mM Hepes-NaOH, pH 7.4, 20 mM MgCl2 containing 200 nM methyl arachidonyl fluorophosphonate (Cayman Chemical; dried from ethyl acetate stock solution under argon gas and dissolved in DMSO as 5 mM stock) was added. […] The reaction mixtures were incubated at room temperature for 40 min and the reactions were stopped by addition of 5 μL of 1% H3PO4. After the addition of 45 μL MicroScint-E (Perkin-Elmer), plates were sealed with Top Seal-A covers (Perkin-Elmer) and phase partitioning of substrates and products was achieved using a HT-91100 microplate orbital shaker (Big Bear Automation, Santa Clara, Calif.). Plates were centrifuged at 2,000×g for 1 min in an Allegra 6R Centrifuge (Beckman Coulter) and then were sealed again with fresh covers before reading in a 1450 Microbeta Wallac Trilux Scintillation Counter (Perkin Elmer). DGAT2 activity was measured by quantifying the generated product [^14C]tridecanoylglycerol in the upper organic phase.
Inhibitors were tested at eleven different concentrations to generate IC50 values for each compound. […] Results are reported as geometric mean IC50 values.

[1] = background for complete inhibition of DGAT2 obtained with 50 μM (1R,2R)-2-({3′-Fluoro-4′-[(6-fluoro-1,3-benzothiazol-2-yl)amino]-1,1′-biphenyl-4-yl}carbonyl)cyclopentanecarboxylic acid, read-out: DGAT2 IC50

Human DGAT2 (hDGAT2), sequence (Q96PD7 whole entry): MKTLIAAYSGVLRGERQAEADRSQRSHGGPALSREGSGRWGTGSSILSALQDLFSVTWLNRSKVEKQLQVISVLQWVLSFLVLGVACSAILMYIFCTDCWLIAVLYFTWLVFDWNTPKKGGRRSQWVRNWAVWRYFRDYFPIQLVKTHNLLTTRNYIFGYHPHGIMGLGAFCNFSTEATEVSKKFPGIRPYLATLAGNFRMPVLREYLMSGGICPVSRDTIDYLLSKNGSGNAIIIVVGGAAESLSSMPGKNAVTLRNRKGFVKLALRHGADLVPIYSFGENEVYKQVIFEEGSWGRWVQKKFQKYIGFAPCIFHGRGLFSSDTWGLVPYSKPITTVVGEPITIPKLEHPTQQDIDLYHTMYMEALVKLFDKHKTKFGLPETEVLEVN

Compound | IC50 [1] | IC50 (background for complete inhibition of DGAT2 obtained with Example 196-A instead of the cyclopentanecarboxylic acid reference, read-out: DGAT2 IC50 (nM), values in the parentheses)
O=C([C@@H]1CCCN(c2ccc3nc(-c4ccnc(C5CC5)n4)[nH]c3n2)C1)N1C[C@@H](F)[C@H](F)C1 [Example 68, ((R)-1-(2-(2-Cyclopropylpyrimidin-4-yl)-3H-imidazo[4,5-b]pyridin-5-yl)piperidin-3-yl)((3R,4R)-3,4-difluoropyrrolidin-1-yl)methanone] | 54.7 nM | 
O=C([C@@H]1CCCN(c2ccc3nc(-c4ccnc(C5CC5)n4)[nH]c3n2)C1)N1CC[C@@H](F)C1 [Example 69, ((R)-1-(2-(2-Cyclopropylpyrimidin-4-yl)-3H-imidazo[4,5-b]pyridin-5-yl)piperidin-3-yl)((R)-3-fluoropyrrolidin-1-yl)methanone] | 35.4 nM | 
O=C([C@@H]1CCCN(c2ccc3nc(-c4ccnc(C5CC5)n4)[nH]c3n2)C1)N1CCOCC1 [Example 70, (R)-(1-(2-(2-Cyclopropylpyrimidin-4-yl)-3H-imidazo[4,5-b]pyridin-5-yl)piperidin-3-yl)(morpholino)methanone] | 162 nM | 
CN(C)C(=O)[C@@H]1CCCN(c2ccc3nc(-c4ccnc(C5CC5)n4)[nH]c3n2)C1 [Example 71, (R)-1-(2-(2-Cyclopropylpyrimidin-4-yl)-3H-imidazo[4,5-b]pyridin-5-yl)-N,N-dimethylpiperidine-3-carboxamide] | 1470 nM | 
Cc1cnn(C2(c3nc4ccc(N5CCC[C@@H](C(=O)N6CCCC6)C5)nc4[nH]3)CC2)c1 [Example 72] | 104 nM | 
O=C([C@@H]1CCCN(c2ccc3nc(C4(n5cc(C6CC6)cn5)CC4)[nH]c3n2)C1)N1CCCC1 [Example 77, (R)-(1-(2-(1-(4-Cyclopropyl-1H-pyrazol-1-yl)cyclopropyl)-3H-imidazo[4,5-b]pyridin-5-yl)piperidin-3-yl)(pyrrolidin-1-yl)methanone] | 107 nM | 
O=C([C@@H]1CCCN(c2ccc3nc(C4(n5cccn5)CC4)[nH]c3n2)C1)N1CCCC1 [Example 79, (R)-(1-(2-(1-(1H-Pyrazol-1-yl)cyclopropyl)-3H-imidazo[4,5-b]pyridin-5-yl)piperidin-3-yl)(pyrrolidin-1-yl)methanone] | 230 nM | 238 nM
O=C([C@@H]1CCCN(c2ccc3nc(C4(n5cccn5)CCC4)[nH]c3n2)C1)N1CCCC1 [Example 80, (R)-(1-(2-(1-(1H-Pyrazol-1-yl)cyclobutyl)-3H-imidazo[4,5-b]pyridin-5-yl)piperidin-3-yl)(pyrrolidin-1-yl)methanone] | 1400 nM | 
O=C([C@@H]1CCCN(c2ccc3nc(-c4nc(C5CC5)cs4)[nH]c3n2)C1)N1CCCC1 [Example 84, (R)-(1-(2-(4-Cyclopropylthiazol-2-yl)-3H-imidazo[4,5-b]pyridin-5-yl)piperidin-3-yl)(pyrrolidin-1-yl)methanone] | 9.55 nM | 
O=C([C@@H]1CCCN(c2ccc3nc(C4(Cc5ccccc5)COC4)[nH]c3n2)C1)N1CCCC1 [Example 85, (R)-(1-(2-(3-Benzyloxetan-3-yl)-3H-imidazo[4,5-b]pyridin-5-yl)piperidin-3-yl)(pyrrolidin-1-yl)methanone] | 1160 nM | 
Cc1cc(C2(c3nc4ccc(N5CCC[C@@H](C(=O)N6CCCC6)C5)nc4[nH]3)CC2)on1 [Example 86, (R)-(1-(2-(1-(3-Methylisoxazol-5-yl)cyclopropyl)-3H-imidazo[4,5-b]pyridin-5-yl)piperidin-3-yl)(pyrrolidin-1-yl)methanone] | 288 nM | 
Cc1cc(C2(c3nc4ccc(N5CCC[C@@H](C(=O)N6CCCC6)C5)nc4[nH]3)CC2)no1 [Example 87, (R)-(1-(2-(1-(5-Methylisoxazol-3-yl)cyclopropyl)-3H-imidazo[4,5-b]pyridin-5-yl)piperidin-3-yl)(pyrrolidin-1-yl)methanone] | 102 nM | 
O=C([C@@H]1CCCN(c2ccc3nc(C4(c5cccnc5)CCC4)[nH]c3n2)C1)N1CCCC1 [Example 88, (R)-(1-(2-(1-(Pyridin-3-yl)cyclobutyl)-3H-imidazo[4,5-b]pyridin-5-yl)piperidin-3-yl)(pyrrolidin-1-yl)methanone] | 190 nM | 
Cc1ccn(C2(c3nc4ccc(N5CCC[C@@H](C(=O)N6CCCC6)C5)nc4[nH]3)CC2)n1 [Example 89, (R)-(1-(2-(1-(3-Methyl-1H-pyrazol-1-yl)cyclopropyl)-3H-imidazo[4,5-b]pyridin-5-yl)piperidin-3-yl)(pyrrolidin-1-yl)methanone] | 546 nM | 
Cc1ccnn1C1(c2nc3ccc(N4CCC[C@@H](C(=O)N5CCCC5)C4)nc3[nH]2)CC1 [Example 90, (R)-(1-(2-(1-(5-methyl-1H-pyrazol-1-yl)cyclopropyl)-3H-imidazo[4,5-b]pyridin-5-yl)piperidin-3-yl)(pyrrolidin-1-yl)methanone] | 315 nM | 
COc1ccccc1C1(c2nc3ccc(N4CCC[C@@H](C(=O)N5CCCC5)C4)nc3[nH]2)CC1 [Example 92, (R)-(1-(2-(1-(2-Methoxyphenyl)cyclopropyl)-3H-imidazo[4,5-b]pyridin-5-yl)piperidin-3-yl)(pyrrolidin-1-yl)methanone] | 242 nM | 
O=C([C@@H]1CCCN(c2ccc3nc(C4(c5ccon5)CC4)[nH]c3n2)C1)N1CCCC1 [Example 93, (R)-(1-(2-(1-(Isoxazol-3-yl)cyclopropyl)-3H-imidazo[4,5-b]pyridin-5-yl)piperidin-3-yl)(pyrrolidin-1-yl)methanone] | 202 nM | 
CCOC(=O)c1cc(OC)nc(-c2nc3ccc(N4CCC[C@@H](C(=O)N5CCCC5)C4)nc3[nH]2)c1 [Example 96, (R)-Ethyl 2-methoxy-6-(5-(3-(pyrrolidine-1-carbonyl)piperidin-1-yl)-3H-imidazo[4,5-b]pyridin-2-yl)isonicotinate] | 37.3 nM | 
Cc1cccc(C2(c3nc4ccc(N5CCC[C@@H](C(=O)N6CCCC6)C5)nc4[nH]3)CC2)c1 [Example 97, (R)-Pyrrolidin-1-yl(1-(2-(1-m-tolylcyclopropyl)-3H-imidazo[4,5-b]pyridin-5-yl)piperidin-3-yl)methanone] | 96.9 nM | 
O=C([C@@H]1CCCN(c2ccc3nc(-c4cc(C5CC5)ccn4)[nH]c3n2)C1)N1CCCC1 [Example 98, (R)-(1-(2-(4-Cyclopropylpyridin-2-yl)-3H-imidazo[4,5-b]pyridin-5-yl)piperidin-3-yl)(pyrrolidin-1-yl)methanone] | 94.4 nM | 
O=C([C@@H]1CCCN(c2ccc3nc(-c4nccc(C5CC5)n4)[nH]c3n2)C1)N1CCCC1 [Example 99, (R)-(1-(2-(4-Cyclopropylpyrimidin-2-yl)-3H-imidazo[4,5-b]pyridin-5-yl)piperidin-3-yl)(pyrrolidin-1-yl)methanone] | 72.5 nM | 
CNS(=O)(=O)c1cncc(-c2nc3ccc(N4CCC[C@@H](C(=O)N5CCCC5)C4)nc3[nH]2)c1 [Example 100, (R)-N-Methyl-5-(5-(3-(pyrrolidine-1-carbonyl)piperidin-1-yl)3H-imidazo[4,5-b]pyridin-2-yl)pyridine-3-sulfonamide] | 47.8 nM | 
O=C([C@@H]1CCCN(c2ccc3nc(-c4cncc(C5CC5)n4)[nH]c3n2)C1)N1CCCC1 [Example 101, (R)-(1-(2-(6-Cyclopropylpyrazin-2-yl)-3H-imidazo[4,5-b]pyridin-5-yl)piperidin-3-yl)(pyrrolidin-1-yl)methanone] | 60.5 nM | 
COc1cccc(C2(c3nc4ccc(N5CCC[C@@H](C(=O)N6CCCC6)C5)nc4[nH]3)CC2)c1 [Example 102, (R)-(1-(2-(1-(3-Methoxyphenyl)cyclopropyl)-3H-imidazo[4,5-b]pyridin-5-yl)piperidin-3-yl)(pyrrolidin-1-yl)methanone] | 99.6 nM | 
Cc1ccc(C2(c3nc4ccc(N5CCC[C@@H](C(=O)N6CCCC6)C5)nc4[nH]3)CC2)cc1 [Example 103, (R)-Pyrrolidin-1-yl(1-(2-(1-(p-tolyl)cyclopropyl)-3H-imidazo[4,5-b]pyridin-5-yl)piperidin-3-yl)methanone] | 73.7 nM | 
